Reference: ChEMBL document CHEMBL1153328, “5-Aminomethylbenzimidazoles as potent ITK antagonists” (Bioorg Med Chem Lett, 2009)
≈ marks a conversion by molar mass, not a printed value.

molecular target: T1, Tyrosine-protein kinase ITK/TSK (Homo sapiens, UniProt Q08881); test: Binding affinity to ITK by DELFIA-based molecular assay; details: not given
T1 sequence (Q08881 whole entry): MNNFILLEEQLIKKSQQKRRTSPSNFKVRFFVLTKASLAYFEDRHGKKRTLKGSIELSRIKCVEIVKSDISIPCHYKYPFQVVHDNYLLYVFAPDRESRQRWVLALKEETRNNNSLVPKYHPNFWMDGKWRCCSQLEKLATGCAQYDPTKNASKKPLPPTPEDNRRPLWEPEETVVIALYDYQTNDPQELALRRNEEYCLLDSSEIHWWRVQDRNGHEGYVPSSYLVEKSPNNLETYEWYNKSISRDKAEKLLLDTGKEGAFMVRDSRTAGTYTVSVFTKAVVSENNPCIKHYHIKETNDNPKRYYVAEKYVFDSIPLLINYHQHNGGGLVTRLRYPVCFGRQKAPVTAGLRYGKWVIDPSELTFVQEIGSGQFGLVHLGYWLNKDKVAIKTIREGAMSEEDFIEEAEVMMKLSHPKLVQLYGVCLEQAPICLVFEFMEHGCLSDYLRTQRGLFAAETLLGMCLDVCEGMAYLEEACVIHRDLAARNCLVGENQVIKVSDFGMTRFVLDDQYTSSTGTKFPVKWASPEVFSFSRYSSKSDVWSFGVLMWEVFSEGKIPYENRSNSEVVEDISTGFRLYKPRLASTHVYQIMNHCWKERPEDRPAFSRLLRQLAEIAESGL

With `CC(C)(O)Cn1/c(=N/C(=O)c2ccc(-c3cn[nH]c3)s2)[nH]c2cc(CN3CCC(O)C3)ccc21` (configuration not stated) as the compound, how does the IC50 read?
Its IC50 is 2 nM.

With `C[C@@H](N(C)Cc1ccc2c(c1)nc(NC(=O)c1ccc(-c3cn[nH]c3)s1)n2CC(C)(C)O)C(C)(C)C` as the compound, how does the IC50 read?
Its IC50 is 1 nM.

With `CC(C)(O)Cn1c(NC(=O)c2ccc(-c3cn[nH]c3)s2)nc2cc(CNC3CCCCC3)ccc21` as the compound, how does the IC50 read?
The IC50 was 1 nM.

With `CC1COCC(C)N1Cc1ccc2c(c1)[nH]/c(=N\C(=O)c1ccc(-c3cn[nH]c3)s1)n2CC(C)(C)O` (configuration not stated) as the compound, how does the IC50 read?
Its IC50 is 1 nM.

Which IC50 does the source give for `Cc1ncc(-c2ccc(C(=O)Nc3nc4cc(N(C)C(=O)c5ccccc5)ccc4n3CC(C)(C)O)s2)o1` here?
The IC50 was 3 nM.

For `Cc1ncc(-c2ccc(C(=O)Nc3nc4cc(CNC5CCCCC5)ccc4n3CC(C)(C)O)s2)o1`, which IC50 is on record?
Its IC50 is 8 nM.

molecular target: T1, Tyrosine-protein kinase ITK/TSK; test: Inhibition of ITK in presence of 1 mM ATP; details: not given

Which IC50 does the source give for `CC(C)(O)Cn1/c(=N/C(=O)c2ccc(-c3cn[nH]c3)s2)[nH]c2cc(CN3CCC(O)C3)ccc21` (configuration not stated) here?
Its IC50 is 310 nM.

For `C[C@@H](N(C)Cc1ccc2c(c1)nc(NC(=O)c1ccc(-c3cn[nH]c3)s1)n2CC(C)(C)O)C(C)(C)C`, which IC50 is on record?
Its IC50 is 20 nM.

Which IC50 does the source give for `CC(C)(O)Cn1c(NC(=O)c2ccc(-c3cn[nH]c3)s2)nc2cc(CNC3CCCCC3)ccc21` here?
The IC50 was 99 nM.

With `CC1COCC(C)N1Cc1ccc2c(c1)[nH]/c(=N\C(=O)c1ccc(-c3cn[nH]c3)s1)n2CC(C)(C)O` (configuration not stated) as the compound, how does the IC50 read?
Its IC50 is 98 nM.

For `Cc1ncc(-c2ccc(C(=O)Nc3nc4cc(N(C)C(=O)c5ccccc5)ccc4n3CC(C)(C)O)s2)o1`, which IC50 is on record?
Its IC50 is 200 nM.

Which IC50 does the source give for `Cc1ncc(-c2ccc(C(=O)Nc3nc4cc(CNC5CCCCC5)ccc4n3CC(C)(C)O)s2)o1` here?
Its IC50 is 940 nM.

molecular target: Insulin receptor (Homo sapiens, UniProt P06213); test: Inhibition of IRK; details: not given
Sequence (P06213 28-758 limits assumed): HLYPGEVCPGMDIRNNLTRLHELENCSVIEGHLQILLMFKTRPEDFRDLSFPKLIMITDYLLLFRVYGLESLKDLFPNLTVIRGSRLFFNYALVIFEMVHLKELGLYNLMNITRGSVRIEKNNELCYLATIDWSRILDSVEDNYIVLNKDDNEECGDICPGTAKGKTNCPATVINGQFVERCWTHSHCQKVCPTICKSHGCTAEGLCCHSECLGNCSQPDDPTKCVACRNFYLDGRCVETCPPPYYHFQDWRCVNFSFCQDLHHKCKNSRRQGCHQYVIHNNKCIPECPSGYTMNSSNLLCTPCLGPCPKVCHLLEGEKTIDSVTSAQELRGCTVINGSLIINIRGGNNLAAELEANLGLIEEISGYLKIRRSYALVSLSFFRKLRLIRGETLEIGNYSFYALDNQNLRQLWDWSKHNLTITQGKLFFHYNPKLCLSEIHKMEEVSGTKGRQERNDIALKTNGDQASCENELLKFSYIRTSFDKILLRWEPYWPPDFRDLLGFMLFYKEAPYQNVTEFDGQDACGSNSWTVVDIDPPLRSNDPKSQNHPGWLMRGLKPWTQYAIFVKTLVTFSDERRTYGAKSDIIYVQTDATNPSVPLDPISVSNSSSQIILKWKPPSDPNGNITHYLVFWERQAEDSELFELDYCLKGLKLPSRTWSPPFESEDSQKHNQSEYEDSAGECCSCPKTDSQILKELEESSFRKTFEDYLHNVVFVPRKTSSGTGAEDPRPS
Sequence (P06213 763-1382 limits assumed): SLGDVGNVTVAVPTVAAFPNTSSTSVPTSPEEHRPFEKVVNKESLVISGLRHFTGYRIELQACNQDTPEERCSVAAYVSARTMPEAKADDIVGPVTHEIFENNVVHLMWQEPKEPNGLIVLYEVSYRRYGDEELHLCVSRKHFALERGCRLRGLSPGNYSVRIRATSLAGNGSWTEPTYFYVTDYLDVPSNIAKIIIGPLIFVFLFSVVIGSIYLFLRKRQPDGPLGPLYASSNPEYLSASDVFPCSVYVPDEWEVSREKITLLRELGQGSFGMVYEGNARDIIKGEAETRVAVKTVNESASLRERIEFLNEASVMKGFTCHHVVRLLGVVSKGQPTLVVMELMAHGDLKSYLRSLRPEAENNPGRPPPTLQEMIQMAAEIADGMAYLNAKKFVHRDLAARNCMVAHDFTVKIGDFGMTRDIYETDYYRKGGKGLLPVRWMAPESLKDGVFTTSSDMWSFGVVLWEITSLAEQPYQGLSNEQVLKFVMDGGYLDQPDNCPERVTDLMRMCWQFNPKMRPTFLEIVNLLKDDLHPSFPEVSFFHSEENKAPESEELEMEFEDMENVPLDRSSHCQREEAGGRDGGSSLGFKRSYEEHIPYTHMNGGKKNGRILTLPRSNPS

Which IC50 does the source give for `CC(C)(O)Cn1/c(=N/C(=O)c2ccc(-c3cn[nH]c3)s2)[nH]c2cc(CN3CCC(O)C3)ccc21` (configuration not stated) here?
Its IC50 is 420 nM.

With `C[C@@H](N(C)Cc1ccc2c(c1)nc(NC(=O)c1ccc(-c3cn[nH]c3)s1)n2CC(C)(C)O)C(C)(C)C` as the compound, how does the IC50 read?
Its IC50 is 230 nM.

For `CC(C)(O)Cn1c(NC(=O)c2ccc(-c3cn[nH]c3)s2)nc2cc(CNC3CCCCC3)ccc21`, which IC50 is on record?
The IC50 was 400 nM.

Which IC50 does the source give for `CC1COCC(C)N1Cc1ccc2c(c1)[nH]/c(=N\C(=O)c1ccc(-c3cn[nH]c3)s1)n2CC(C)(C)O` (configuration not stated) here?
Its IC50 is 320 nM.

Which IC50 does the source give for `Cc1ncc(-c2ccc(C(=O)Nc3nc4cc(N(C)C(=O)c5ccccc5)ccc4n3CC(C)(C)O)s2)o1` here?
The IC50 was 940 nM.

For `Cc1ncc(-c2ccc(C(=O)Nc3nc4cc(CNC5CCCCC5)ccc4n3CC(C)(C)O)s2)o1`, which IC50 is on record?
The IC50 was 700 nM.

molecular target: T1, Tyrosine-protein kinase ITK/TSK; test: Antagonist activity at human ITK expressed in BTK deficient DT40 cells assessed as inhibition of B cell receptor-stimulated calcium influx; type: functional, cell-based; details: not given

With `CC(C)(O)Cn1/c(=N/C(=O)c2ccc(-c3cn[nH]c3)s2)[nH]c2cc(CN3CCC(O)C3)ccc21` (configuration not stated) as the compound, how does the IC50 read?
Its IC50 is 130 nM.

With `C[C@@H](N(C)Cc1ccc2c(c1)nc(NC(=O)c1ccc(-c3cn[nH]c3)s1)n2CC(C)(C)O)C(C)(C)C` as the compound, how does the IC50 read?
Its IC50 is 2 nM.

For `CC(C)(O)Cn1c(NC(=O)c2ccc(-c3cn[nH]c3)s2)nc2cc(CNC3CCCCC3)ccc21`, which IC50 is on record?
Its IC50 is 20 nM.

For `CC1COCC(C)N1Cc1ccc2c(c1)[nH]/c(=N\C(=O)c1ccc(-c3cn[nH]c3)s1)n2CC(C)(C)O` (configuration not stated), which IC50 is on record?
Its IC50 is 3 nM.

Which IC50 does the source give for `Cc1ncc(-c2ccc(C(=O)Nc3nc4cc(N(C)C(=O)c5ccccc5)ccc4n3CC(C)(C)O)s2)o1` here?
Its IC50 is 110 nM.

Which IC50 does the source give for `Cc1ncc(-c2ccc(C(=O)Nc3nc4cc(CNC5CCCCC5)ccc4n3CC(C)(C)O)s2)o1` here?
The IC50 was 210 nM.

tested on: T-cell; test: Inhibition of anti-CD3 and anti-CD28 monoclonal antibody-stimulated IL2 secretion in human CD4+ T cells; type: functional, cell-based; details: not given

Which IC50 does the source give for `C[C@@H](N(C)Cc1ccc2c(c1)nc(NC(=O)c1ccc(-c3cn[nH]c3)s1)n2CC(C)(C)O)C(C)(C)C` here?
The IC50 was 64 nM.

With `CC(C)(O)Cn1c(NC(=O)c2ccc(-c3cn[nH]c3)s2)nc2cc(CNC3CCCCC3)ccc21` as the compound, how does the IC50 read?
The IC50 was 93 nM.

For `CC1COCC(C)N1Cc1ccc2c(c1)[nH]/c(=N\C(=O)c1ccc(-c3cn[nH]c3)s1)n2CC(C)(C)O` (configuration not stated), which IC50 is on record?
The IC50 was 46 nM.

With `Cc1ncc(-c2ccc(C(=O)Nc3nc4cc(N(C)C(=O)c5ccccc5)ccc4n3CC(C)(C)O)s2)o1` as the compound, how does the IC50 read?
Its IC50 is 440 nM.

Which IC50 does the source give for `Cc1ncc(-c2ccc(C(=O)Nc3nc4cc(CNC5CCCCC5)ccc4n3CC(C)(C)O)s2)o1` here?
The IC50 was 180 nM.

tested on: not listed separately; test: Solubility at pH 7; type: physicochemical; details: buffer

With `Cc1ncc(-c2ccc(C(=O)Nc3nc4cc(N(C)C(=O)c5ccccc5)ccc4n3CC(C)(C)O)s2)o1` as the compound, how does the solubility read?
The solubility was 2 µg/mL (≈ 3.78 µM).

tested on: Blood; test: Inhibition of staphylococcal entertoxin B-stimulated IL2 secretion in human whole blood; type: functional, tissue-based; details: not given

Which IC50 does the source give for `Cc1ncc(-c2ccc(C(=O)Nc3nc4cc(N(C)C(=O)c5ccccc5)ccc4n3CC(C)(C)O)s2)o1` here?
Its IC50 is 10 µM.

tested on: not listed separately; test: Protein binding in plasma by dialysis method; type: ADME, cell-free; details: read-out: PPB (converted)

With `Cc1ncc(-c2ccc(C(=O)Nc3nc4cc(N(C)C(=O)c5ccccc5)ccc4n3CC(C)(C)O)s2)o1` as the compound, how does the fraction unbound read?
Its fraction unbound is 0.013.
